Laboratory results reported in patent US10059689B2, “Substituted heteroaryl compounds and methods of use” (Sunshine Lake Pharma Co., Ltd., priority 2014, dated 2018).

Molecular target: T1, JAK3 (h) (Homo sapiens, UniProt P52333)
T1 construct: purchased Millipore UK Ltd (contract assay service)
T1 sequence (P52333 1-1124): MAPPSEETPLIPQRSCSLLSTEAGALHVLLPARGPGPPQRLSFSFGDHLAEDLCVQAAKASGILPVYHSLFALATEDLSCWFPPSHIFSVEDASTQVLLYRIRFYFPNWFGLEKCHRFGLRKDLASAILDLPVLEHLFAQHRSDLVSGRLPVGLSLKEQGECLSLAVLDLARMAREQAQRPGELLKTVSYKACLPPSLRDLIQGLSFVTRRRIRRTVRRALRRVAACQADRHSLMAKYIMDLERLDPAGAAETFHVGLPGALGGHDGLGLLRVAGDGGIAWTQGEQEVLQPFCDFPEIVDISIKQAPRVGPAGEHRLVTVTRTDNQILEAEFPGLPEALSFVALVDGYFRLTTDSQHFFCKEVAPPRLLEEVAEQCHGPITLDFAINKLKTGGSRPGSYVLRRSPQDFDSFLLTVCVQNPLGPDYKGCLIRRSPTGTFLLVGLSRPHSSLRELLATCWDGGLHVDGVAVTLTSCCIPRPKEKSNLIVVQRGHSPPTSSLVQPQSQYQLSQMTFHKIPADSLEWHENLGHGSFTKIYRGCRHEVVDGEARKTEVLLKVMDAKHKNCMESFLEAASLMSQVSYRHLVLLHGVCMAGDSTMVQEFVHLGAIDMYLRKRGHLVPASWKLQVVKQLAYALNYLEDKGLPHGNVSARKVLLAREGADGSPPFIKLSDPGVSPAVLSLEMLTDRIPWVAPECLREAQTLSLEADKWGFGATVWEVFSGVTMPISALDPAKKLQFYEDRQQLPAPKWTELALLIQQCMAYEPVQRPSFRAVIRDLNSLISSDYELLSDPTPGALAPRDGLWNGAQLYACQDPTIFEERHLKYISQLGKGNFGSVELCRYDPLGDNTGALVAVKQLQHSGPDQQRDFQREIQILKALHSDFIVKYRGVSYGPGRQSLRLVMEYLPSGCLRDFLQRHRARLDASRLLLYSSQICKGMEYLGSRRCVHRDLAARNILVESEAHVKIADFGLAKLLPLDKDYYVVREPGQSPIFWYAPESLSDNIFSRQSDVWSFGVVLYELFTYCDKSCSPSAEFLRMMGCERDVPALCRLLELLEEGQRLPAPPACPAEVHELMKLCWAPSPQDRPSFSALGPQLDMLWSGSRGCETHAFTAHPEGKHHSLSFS
Assay: JAK3 (h) kinase assay
Assay type: biochemical
Procedure: Kinase assays can be performed by measurement of incorporation of γ-33P ATP into immobilized myelin basic protein (MBP). High binding white 384 well plates (Greiner) are coated with MBP (Sigma #M-1891) by incubation of 60 μL/well of 20 μg/mL MBP in Tris-buffered saline (TBS; 50 mM Tris pH 8.0, 138 mM NaCl, 2.7 mM KCl) for 24 h at 4° C. Plates are washed 3× with 100 μL TBS. Kinase reactions are carried out in a total volume of 34 μL in kinase buffer (according to the need to make, for example, 5 mM Hepes pH 7.6, 15 mM NaCl, 0.01% bovine gamma globulin (Sigma #I-5506), 10 mM MgCl2, 1 mM DTT, 0.02% TritonX-100). Compound dilutions are performed in DMSO and added to assay wells to a final DMSO concentration of 1%. Each data point is measured in duplicate, and at least two duplicate assays are performed for each individual compound determination. Enzyme is added to final concentrations of 10 nM or 20 nM, for example. A mixture of unlabeled ATP and γ-33P ATP is added to start the reaction (2×10^6 cpm of γ-33P ATP per well (3000 Ci/mmole) and 10 μM unlabeled ATP, typically. The reactions are carried out for 1 h at room temperature with shaking Plates are washed 7× with TBS, followed by the addition of 50 μL/well scintillation fluid (Wallac). Plates are read using a Wallac Trilux counter. This is only one format of such assays; various other formats are possible, as known to one skilled in the art.
The above assay procedure can be used to determine the IC50 for inhibition and/or the inhibition constant, Ki. The IC50 is defined as the concentration of compound required to reduce the enzyme activity by 50% under the condition of the assay. The IC50 value is estimated by preparing a 10 point curve using a ½ log dilution series (for example, a typical curve may be prepared using the following compound concentrations: 3 μM, 1 μM, 0.3 μM, 0.1 μM, 0.03 μM, 0.01 μM, 0.003 μM, 0.001 μM, 0.0003 μM and 0 μM).
JAK3 (h) is incubated with 8 mM MOPS pH 7.0, 0.2 mM EDTA, 500 μM GGEEEEYFELVKKKK, 10 mM MgAcetate and [γ-^33P-ATP] (specific activity approx. 500 cpm/pmol, concentration as required). The reaction is initiated by the addition of the MgATP mix. After incubation for 40 minutes at room temperature, the reaction is stopped by the addition of 3% phosphoric acid solution. 10 μL of the reaction is then spotted onto a P30 filtermat and washed three times for 5 minutes in 75 mM phosphoric acid and once in methanol prior to drying and scintillation counting.
The kinase assays described herein were performed at Millipore UK Ltd, Dundee Technology Park, Dundee DD2 1SW, UK.

IC50 [nM]	SMILES
21	Cc1c2ccc(Nc3ncc(Cl)c(NC4CCN(c5ccc(C#N)cn5)CC4)n3)cc2nn1C [Ex. 4]
82	Cc1nn(C)cc1Nc1ncc(Cl)c(NC2CCN(c3ccc(C#N)cn3)CC2)n1 [Ex. 10, 6-(4-((5-chloro-2-((1,3-dimethyl-1H-pyrazol-4-yl)amino)pyrimidin-4-yl)amino)piperidin-1-yl)nicotinonitrile]
20	Cc1c2ccc(Nc3ncc(Cl)c(NC4CCN(c5ccc(C#N)nn5)CC4)n3)cc2nn1C [Ex. 12, 6-(4-((5-chloro-2-((2,3-dimethyl-2H-indazol-6-yl)amino)pyrimidin-4-yl)amino)piperidin-1-yl)pyridazine-3-carbonitrile]

Second part, the compound before the results:

SMILES	IC50 [nM]
CN(c1nc(Nc2cnn(C)c2)ncc1Cl)C1CCN(c2ccc(C#N)cn2)CC1 [Ex. 5, 6-(4-((5-chloro-2-((1-methyl-1H-pyrazol-4-yl)amino)pyrimidin-4-yl) (methyl)amino)piperidin-1-yl)nicotinonitrile]	13
Cc1cc(Nc2ncc(Cl)c(NC3CCN(c4ccc(C#N)nn4)CC3)n2)nn1C [Ex. 13, 6-(4-((5-chloro-2-((1,5-dimethyl-1H-pyrazol-3-yl)amino)pyrimidin-4-yl)amino)piperidin-1-yl)pyridazine-3-carbonitrile]	73
Cc1nn(C)cc1Nc1ncc(Cl)c(NC2CCN(c3ccc(C#N)nn3)CC2)n1 [Ex. 11, 6-(4-((5-chloro-2-((1,3-dimethyl-1H-pyrazol-4-yl)amino)pyrimidin-4-yl)amino)piperidin-1-yl)pyridazine-3-carbonitrile]	263
